The source of these data is patent publication US10202339B2, “Therapeutic compounds and compositions” (AGIOS PHARMACEUTICALS, INC., priority 2012, dated 2019).

The target of the assay is IDH2 R140Q (Homo sapiens (Human), UniProt P48735, R140Q). Briefly: IDH2 R140Q enzymatic cofactor depletion assay (diaphorase/resazurin). The conditions noted are these: IDH2 R140Q enzyme, one hour preincubation with compound, one hour reaction; read-out: Enz R140Q. It is filed as biochemical. The method, then: The reaction was terminated by the addition of a second enzyme, diaphorase, and a corresponding substrate, resazurin. Diaphorase reduces resazurin to the highly fluorescent resorufin with the concomitant oxidation of NADPH to NADP, both halting the IDH2 reaction by depleting the available cofactor pool and facilitating quantitation of the amount of cofactor remaining after a specific time period through quantitative production of an easily detected fluorophore.
Sequence of IDH2 R140Q (P48735 40-452 R140Q): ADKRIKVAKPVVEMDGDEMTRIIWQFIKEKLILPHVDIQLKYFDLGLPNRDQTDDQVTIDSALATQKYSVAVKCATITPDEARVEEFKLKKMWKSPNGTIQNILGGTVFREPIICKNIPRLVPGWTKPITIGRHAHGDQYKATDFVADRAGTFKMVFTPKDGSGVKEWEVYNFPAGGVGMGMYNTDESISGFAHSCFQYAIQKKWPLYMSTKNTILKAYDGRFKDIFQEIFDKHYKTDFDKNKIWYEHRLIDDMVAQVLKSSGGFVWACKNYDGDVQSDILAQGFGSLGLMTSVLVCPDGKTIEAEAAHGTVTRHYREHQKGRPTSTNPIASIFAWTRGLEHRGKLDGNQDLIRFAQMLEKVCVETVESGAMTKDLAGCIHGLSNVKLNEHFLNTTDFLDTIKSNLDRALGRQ
The compound was then incubated for one hour at room temperature with the enzyme; before starting the IDH2 reaction with the addition of 10 μl of substrate mix containing 50 μM NADPH and 6.3 mM α-KG in the buffer described above. After a further one hour of incubation at room temperature, the reaction was halted and the remaining NADPH measured through conversion of resazurin to resorufin by the addition of 25 μl Stop Mix (36 μg/ml diaphorase enzyme and 60 μM resazurin; in buffer). After one minute of incubation the plate was read on a plate reader at Ex544/Em590.
(In general: The colour change of resazurin is a common sign of viable cells or microbes.)

Take `O=C(Nc1cc(S(=O)(=O)NCC(F)(F)F)ccc1-c1ccccc1)Nc1ccncc1C(F)(F)F` [Compound 78, N-(2,2,2-trifluoroethyl)-2-(3-(3-(trifluoromethyl)pyridin-4-yl)ureido)-[1,1′-biphenyl]-4-sulfonamide]: the IC50 fell in the range of 100 to 1000 nM. As to `O=C(Nc1cccc(Cl)n1)Nc1cc(S(=O)(=O)NCC(F)(F)F)ccc1-c1ccccc1` [Compound 79, 2-(3-(6-chloropyridin-2-yl)ureido)-N-(2,2,2-trifluoroethyl)-[1,1′-biphenyl]-4-sulfonamide], the IC50 was 100 to 1000 nM. The result for `O=C(Nc1cccc(CO)c1)Nc1cc(S(=O)(=O)NCC(F)(F)F)ccc1-c1ccccc1` [Compound 80, 2-(3-(3-(hydroxymethyl)phenyl)ureido)-N-(2,2,2-trifluoroethyl)-[1,1′-biphenyl]-4-sulfonamide] reads 100 to 1000 nM; that for `O=C(Nc1cccc(O)c1)Nc1cc(S(=O)(=O)NCC(F)(F)F)ccc1-c1ccccc1` [Compound 81, 2-(3-(3-hydroxyphenyl)ureido)-N-(2,2,2-trifluoroethyl)-[1,1′-biphenyl]-4-sulfonamide], 100 to 1000 nM; that for `O=C(Nc1cc(Cl)ccn1)Nc1cc(S(=O)(=O)NCC(F)(F)F)ccc1-c1ccccc1` [Compound 82, 2-(3-(4-chloropyridin-2-yl)ureido)-N-(2,2,2-trifluoroethyl)-[1,1′-biphenyl]-4-sulfonamide], 100 to 1000 nM. The same measure for `C[S+]([O-])c1cccc(NC(=O)Nc2cc(S(=O)(=O)NCC(F)(F)F)ccc2-c2ccccc2)c1` (centres unmarked) [Compound 83, 2-(3-(3-(methylsulfinyl)phenyl)ureido)-N-(2,2,2-trifluoroethyl)-[1,1′-biphenyl]-4-sulfonamide]: 100 to 1000 nM; for `O=C(Nc1cc(S(=O)(=O)NCC(F)(F)F)ccc1-c1ccccc1)Nc1cnccc1C(F)(F)F` [Compound 84, N-(2,2,2-trifluoroethyl)-2-(3-(4-(trifluoromethyl)pyridin-3-yl)ureido)-[1,1′-biphenyl]-4-sulfonamide]: 100 to 1000 nM.

Regarding `O=C(Nc1cnccc1Cl)Nc1cc(S(=O)(=O)NCC(F)(F)F)ccc1-c1ccccc1` [Compound 85, 2-(3-(4-chloropyridin-3-yl)ureido)-N-(2,2,2-trifluoroethyl)-[1,1′-biphenyl]-4-sulfonamide], the IC50 was 100 to 1000 nM. For the compound `O=C(Nc1cccc(F)n1)Nc1cc(S(=O)(=O)NCC(F)(F)F)ccc1-c1ccccc1` [Compound 86, 2-(3-(6-fluoropyridin-2-yl)ureido)-N-(2,2,2-trifluoroethyl)-[1,1′-biphenyl]-4-sulfonamide], the IC50 lay within 100 to 1000 nM.

In the case of `O=C(Nc1cc(C(F)(F)F)ccn1)Nc1cc(S(=O)(=O)NCC(F)(F)F)ccc1-c1ccccc1` [Compound 87, N-(2,2,2-trifluoroethyl)-2-(3-(4-(trifluoromethyl)pyridin-2-yl)ureido)-[1,1′-biphenyl]-4-sulfonamide], the IC50 is 100 to 1000 nM.

Take `O=C(Nc1cccc(Cl)c1)Nc1cc(S(=O)(=O)NCC(F)(F)F)ccc1-c1ccccc1` [Compound 88, 2-(3-(3-chlorophenyl)ureido)-N-(2,2,2-trifluoroethyl)-[1,1′-biphenyl]-4-sulfonamide]: the IC50 lay within 100 to 1000 nM. The result for `O=C(Nc1cc(F)cc(F)c1)Nc1cc(S(=O)(=O)NCC(F)(F)F)ccc1-c1ccccc1` [Compound 89, 2-(3-(3,5-difluorophenyl)ureido)-N-(2,2,2-trifluoroethyl)-[1,1′-biphenyl]-4-sulfonamide] reads 100 to 1000 nM; that for `O=C(Nc1cc(F)ccc1Cl)Nc1cc(S(=O)(=O)NCC(F)(F)F)ccc1-c1ccccc1` [Compound 90, 2-(3-(2-chloro-5-fluorophenyl)ureido)-N-(2,2,2-trifluoroethyl)-[1,1′-biphenyl]-4-sulfonamide], 100 to 1000 nM.

On to `Cc1cc(NC(=O)Nc2cc(S(=O)(=O)NCC(F)(F)F)ccc2-c2ccccc2)nn1C` [Compound 91, 2-(3-(1,5-dimethyl-1H-pyrazol-3-yl)ureido)-N-(2,2,2-trifluoroethyl)-[1,1′-biphenyl]-4-sulfonamide], for which the IC50 was 100 to 1000 nM. Regarding `CC(C)n1ccc(NC(=O)Nc2cc(S(=O)(=O)NCC(F)(F)F)ccc2-c2ccccc2)n1` [Compound 92, 2-(3-(1-isopropyl-1H-pyrazol-3-yl)ureido)-N-(2,2,2-trifluoroethyl)-[1,1′-biphenyl]-4-sulfonamide], the IC50 lay in the range of 100 to 1000 nM. The same measure for `CCn1ccc(NC(=O)Nc2cc(S(=O)(=O)NCC(F)(F)F)ccc2-c2ccccc2)n1` [Compound 93, 2-(3-(1-ethyl-1H-pyrazol-3-yl)ureido)-N-(2,2,2-trifluoroethyl)-[1,1′-biphenyl]-4-sulfonamide]: 100 to 1000 nM; for `O=C(Nc1cncc(C(F)(F)F)c1)Nc1cc(S(=O)(=O)NCC(F)(F)F)ccc1-c1ccccc1` [Compound 94, N-(2,2,2-trifluoroethyl)-2-(3-(5-(trifluoromethyl)pyridin-3-yl)ureido)-[1,1′-biphenyl]-4-sulfonamide]: 100 to 1000 nM.

Take `O=C(Nc1cc(S(=O)(=O)NCC(F)(F)F)ccc1-c1ccccc1)Nc1ncccc1Cl` [Compound 95]: the IC50 fell in the range of 1000 to 10000 nM.

With `Cc1cc(NC(=O)Nc2cc(S(=O)(=O)NCC(F)(F)F)ccc2-c2ccccc2)n(C)n1` [Compound 96], the IC50 is 1000 to 10000 nM. With `O=C(Nc1cc(S(=O)(=O)NCC(F)(F)F)ccc1-c1ccccc1)Nc1cccnc1F` [Compound 97, 2-(3-(2-fluoropyridin-3-yl)ureido)-N-(2,2,2-trifluoroethyl)-[1,1′-biphenyl]-4-sulfonamide], the IC50 lay within 100 to 1000 nM. In the case of `O=C(Nc1cncc(F)c1)Nc1cc(S(=O)(=O)NCC(F)(F)F)ccc1-c1ccccc1` [Compound 98, 2-(3-(5-fluoropyridin-3-yl)ureido)-N-(2,2,2-trifluoroethyl)-[1,1′-biphenyl]-4-sulfonamide], the IC50 was 100 to 1000 nM.

Turning to `O=C(Nc1cc(S(=O)(=O)NCC(F)(F)F)ccc1-c1ccccc1)Nc1ncccc1F` [Compound 99, 2-(3-(3-fluoropyridin-2-yl)ureido)-N-(2,2,2-trifluoroethyl)-[1,1′-biphenyl]-4-sulfonamide], the IC50 was in the range of 1000 to 10000 nM. Turning to `O=C(Nc1ncc(Cl)s1)Nc1cc(S(=O)(=O)NCC(F)(F)F)ccc1-c1ccccc1` [Compound 100, 2-(3-(5-chlorothiazol-2-yl)ureido)-N-(2,2,2-trifluoroethyl)-[1,1′-biphenyl]-4-sulfonamide], the IC50 was in the range of 100 to 1000 nM. `Cc1nc(NC(=O)Nc2cc(S(=O)(=O)NCC(F)(F)F)ccc2-c2ccccc2)sc1Cl` [Compound 101, 2-(3-(5-chloro-4-methylthiazol-2-yl)ureido)-N-(2,2,2-trifluoroethyl)-[1,1′-biphenyl]-4-sulfonamide]: the IC50 was 100 to 1000 nM. The same measure for `Cc1coc(NC(=O)Nc2cc(S(=O)(=O)NCC(F)(F)F)ccc2-c2ccccc2)n1` [Compound 102, 2-(3-(4-methyloxazol-2-yl)ureido)-N-(2,2,2-trifluoroethyl)-[1,1′-biphenyl]-4-sulfonamide]: 100 to 1000 nM.

Turning to `O=C(Nc1nc(C(F)(F)F)cs1)Nc1cc(S(=O)(=O)NCC(F)(F)F)ccc1-c1ccccc1` [Compound 103, N-(2,2,2-trifluoroethyl)-2-(3-(4-(trifluoromethyl)thiazol-2-yl)ureido)-[1,1′-biphenyl]-4-sulfonamide], the IC50 lay within 100 to 1000 nM.

With `O=C(Nc1cc(S(=O)(=O)NCC(F)(F)F)ccc1-c1ccccc1)Nc1ncccc1C(F)(F)F` [Compound 104, N-(2,2,2-trifluoroethyl)-2-(3-(3-(trifluoromethyl)pyridin-2-yl)ureido)-[1,1′-biphenyl]-4-sulfonamide], the IC50 lay within 1000 to 10000 nM. As for `O=C(Nc1nccc(Cl)n1)Nc1cc(S(=O)(=O)NCC(F)(F)F)ccc1-c1ccccc1` [Compound 105, 2-(3-(4-chloropyrimidin-2-yl)ureido)-N-(2,2,2-trifluoroethyl)-[1,1′-biphenyl]-4-sulfonamide], the IC50 lay within 100 to 1000 nM. As to `O=C(Nc1nccc(C(F)(F)F)n1)Nc1cc(S(=O)(=O)NCC(F)(F)F)ccc1-c1ccccc1` [Compound 106, N-(2,2,2-trifluoroethyl)-2-(3-(4-(trifluoromethyl)pyrimidin-2-yl)ureido)-[1,1′-biphenyl]-4-sulfonamide], the IC50 fell in the range of 100 to 1000 nM. The same measure for `Cc1ccnc(NC(=O)Nc2cc(S(=O)(=O)NCC(F)(F)F)ccc2-c2ccccc2)n1` [Compound 107, 2-(3-(4-methylpyrimidin-2-yl)ureido)-N-(2,2,2-trifluoroethyl)-[1,1′-biphenyl]-4-sulfonamide]: 1000 to 10000 nM.

Consider `O=C(Nc1cc(S(=O)(=O)NCC(F)(F)F)ccc1-c1ccccc1)n1ccc2ccccc21` [Compound 108, N-(4-(N-(2,2,2-trifluoroethyl)sulfamoyl)-[1,1′-biphenyl]-2-yl)-1H-indole-1-carboxamide], for which the IC50 fell in the range of 100 to 1000 nM.

`O=C(Nc1cccc(C(F)(F)F)c1)Nc1cc(S(=O)(=O)Nc2ccccc2)ccc1-c1ccccn1` [Compound 109]: the IC50 is 1000 to 10000 nM. The result for `CC(=O)Nc1cccc(-c2ccc(S(=O)(=O)Nc3ccccc3)cc2NC(=O)Nc2cccc(C(F)(F)F)c2)c1` [Compound 110] reads 1000 to 10000 nM; that for `CNS(=O)(=O)c1ccc(-c2ccsc2)c(NC(=O)Nc2cccc(C(F)(F)F)c2)c1` [Compound 111, N-methyl-4-(thiophen-3-yl)-3-(3-(3-(trifluoromethyl)phenyl)ureido)benzenesulfonamide], 100 to 1000 nM.

For `CCNS(=O)(=O)c1ccc(-c2ccsc2)c(NC(=O)Nc2cccc(C(F)(F)F)c2)c1` [Compound 112, N-ethyl-4-(thiophen-3-yl)-3-(3-(3-(trifluoromethyl)phenyl)ureido)benzenesulfonamide], the IC50 was 100 to 1000 nM.
